The text below walks through data of patent US12415785B2, “Compound modulators of sting” (CTXT PTY LTD, priority 2019, dated 2025).

Molecules are shown by their SMILES.

What all share (format): binding
In assay [1] the target is human STING (HAQ) (Homo sapiens, UniProt Q86WV6, G230A/H232R/R293Q). The experiment in a line: Differential scanning fluorimetry (DSF), huSTING (HAQ). Conditions: 2 μM protein, compound 100 μM; Tm with ligand minus Tm of protein alone (1% DMSO); read-out: DSF huSTING (HAQ) ΔTm (° C.). The protocol: (§1) Biophysical experiments were performed with three different recombinant human STING protein variants designated according to allelic nomenclature of Yi et al., (2013). […] These were ligated into a modified pET43a E. coli expression vector designed to encode N-terminal His tag followed by tobacco etch virus protease (TEV) cleavage site and a STING gene sequence. The resulting protein sequences for the three allelic variants are listed below: […] Cultures were then cooled to 16° C. and protein expression induced by the addition of isopropyl β-D-1-thiogalactopyranoside to a final concentration of 0.5 mM and the cultures shaken overnight for further 16 hours. Following expression, cell cultures were centrifuged at 5000×g for 20 min and cell pellet stored frozen at −70° C. Protein purification was initiated by thawing the cell pellet in Lysis buffer (25 mM Tris-HCl pH 8.0, 300 mM NaCl, 5 mM DTT, 2 mM MgCl2, 10 mM imidazole, 0.5 mg/ml lysozyme, benzonase endonuclease [EMD Millipore], 1 mM PMSF, complete protease inhibitor tablets EDTA-free [Roche]) using a ratio of 7 ml of buffer per 1 g of cells. Cells were further lysed by 3 passes through an ice cooled Avestin C5 cell crusher and then centrifuged at 48,000×g at 4° C. […] The IMAC column was then sequentially washed with IMAC Wash buffer 1 and IMAC Wash buffer 2 (25 mM Tris-HCl pH 8.0, 300 mM NaCl, 5 mM DTT, 20 mM Imidazole) and bound His-TEV-hSTING protein eluted with IMAC Elution buffer (25 mM Tris-HCl pH 8.0, 300 mM NaCl, 5 mM DTT, 250 mM Imidazole). […] Differential scanning fluorimetry (DSF) is a rapid screening method for identifying low-molecular-weight ligands that bind and, in doing so, stabilize (or sometimes destabilize) purified proteins (Niesen 2007). DSF monitors thermal unfolding of protein in the presence of a fluorescent dye and is typically performed using a real-time PCR instrument. The temperature at which a protein unfolds is measured by an increase in the fluorescence of a dye with affinity for hydrophobic parts of the protein that are gradually being exposed during unfolding. The fluorescence of the dye is quenched in aqueous environments, but when the dye associates with hydrophobic sites on unfolded protein, its fluorescence increases. The fluorescence intensity is plotted as a function of the temperature, generating a sigmoidal curve that can be described by a two-state transition. The inflection point of the transition curve (Tm) is calculated using simple equations such as that of Boltzmann. Thermal stability of STING protein (with and without bound ligand) was measured using previously described methodology (Seabrook & Newman, 2013), with samples tested in triplicate using 96-well PCR microplate (AB Gene, ABGAB-0600/W). […] Sealed plates were placed into Bio-Rad CFX96/C1000 thermocycler and FRET scanning mode (λ^excitation of 490 nm and reads at a λ^emission of 570 nm). Melting curves were recorded from 20° C. to 100° C. in 0.5° C. increments every 30 seconds with a read at each increment. Data were analysed using “Meltdown analysis” protocol described by Rosa (2015).
Chain of human STING (HAQ) (Q86WV6 whole entry G230A/H232R/R293Q, looked up): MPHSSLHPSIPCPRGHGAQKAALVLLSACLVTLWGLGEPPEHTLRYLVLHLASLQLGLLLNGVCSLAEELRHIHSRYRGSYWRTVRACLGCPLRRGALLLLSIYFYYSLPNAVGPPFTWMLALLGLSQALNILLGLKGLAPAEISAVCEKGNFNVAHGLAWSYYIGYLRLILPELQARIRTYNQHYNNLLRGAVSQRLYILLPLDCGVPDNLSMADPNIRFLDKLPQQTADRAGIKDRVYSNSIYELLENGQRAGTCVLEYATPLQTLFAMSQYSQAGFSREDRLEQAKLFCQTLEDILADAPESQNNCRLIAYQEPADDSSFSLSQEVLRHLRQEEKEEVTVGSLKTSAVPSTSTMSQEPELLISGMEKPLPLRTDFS
On the technique in general: DSF heats the sample and reads unfolding from a dye or from intrinsic fluorescence.

Assay [2] concerns the target T1, human STING (WT) (Homo sapiens (Human), UniProt Q86WV6, H232R). In words: Surface plasmon resonance (SPR), STING (WT). Conditions: biotinylated STING on streptavidin chip, 8° C. On the procedure:
Biophysical experiments were performed with three different recombinant human STING protein variants designated according to allelic nomenclature of Yi et al., (2013). Codon optimized DNA sequences (for expression in Escherichia coli) encoding amino acid residues 149 to 345 (Swiss Prot Q86WV6) of human STING (WT), human STING (HAQ) and human STING (R232H) were synthesised by GenScript USA Inc (Piscataway, New Jersey, USA). These were ligated into a modified pET43a E. coli expression vector designed to encode N-terminal His tag followed by tobacco etch virus protease (TEV) cleavage site and a STING gene sequence. The resulting protein sequences for the three allelic variants are listed below:
Binding interactions of ligands with STING proteins were quantified using Surface Plasmon Resonance (SPR) with a minimally biotinylated STING protein immobilized on a streptavidin chip surface. […] Minimal biotinylation of purified huSTING proteins was performed using a previously described methodology (Chhabra 2012). Briefly, approximately 20 nmol of recombinant STING protein in 1×TBS buffer (25 mM Tris-HCl, pH 7.5, 150 mM NaCl, 5 mM DTT) was mixed with of EZ-Link™ Sulfo-NHS-LC-LC-Biotin (Thermofisher Scientific, cat #21338) at a molar ratio of 1 to 0.6 and incubated on ice for 2 hours. To remove any unreacted biotin reagent, protein/biotin mixture was passed through a Superdex 75 (10/300 GL) column equilibrated with 10 mM HEPES, pH7.4, 150 mM NaCl, 5 mM DTT, 5%[v/v] glycerol. A protein peak containing biotinylated huSTING protein was collected and stored in aliquots at −80° C.
Streptavidin was simultaneously immobilized in all four channels of a CM5 sensor chip docked in a Biacore instrument (either Biacore S200 or Biacore T200, GE Healthcare) as described previously (Zender 2013). Minimally biotinylated STING protein was captured onto a streptavidin coated chip surface at 8° C. in SPR binding buffer (50 mM HEPES, pH 7.4, 150 mM NaCl, 2%[v/v] DMSO) by gradually injecting in a single channel at a constant flow-rate of 2 μL/min until desired capture level was achieved, typically 3000 to 7000 RU (1 RU=1 pg/mm^2).
All binding experiments were performed at 8° C. in SPR binding buffer. To determine binding affinity, compound interaction with immobilized STING protein was analysed using dose-response experiments. Fresh 10 mM DMSO solutions of compound were diluted directly into SPR binding buffer typically to a concentration of 50 μM and then further diluted 2-fold or 3-fold aiming for either a 5- or 7-point concentration series range. Each ligand concentration series was injected at a constant flow rate of 60 μL/min with a 90 second association and a 180 second dissociation time. These were modified for compounds with longer residence times, so that curves could reach steady-state, or so that compound would be fully dissociated before the subsequent injection.
Scrubber 2 (www.biologic.com.au) was utilized for data processing, where signals were referenced against the blank surface (streptavidin+D-biotin) and further corrected for DMSO refractive index change and then “double-referenced” using a buffer-blank injection (Papalia 2006). Responses were fitted to either a 1:1 steady-state affinity model or a 1:1 kinetic model (that included a mass-transport component), available within Scrubber.
In general terms: SPR reads the build-up and loss of mass on a sensor chip optically.

Assay [3] has as its target T1, human STING (WT). The experiment in a line: Differential scanning fluorimetry (DSF), huSTING (WT). The note with it: 2 μM protein, compound 100 μM, Tm with ligand minus Tm of protein alone (1% DMSO); for ΔTm at 100 µM: read-out: DSF huSTING (WT) ΔTm (° C.). On the procedure:
as §1

T1 sequence (Q86WV6 other isoform, or with tags, fused parts or gaps, stated change not applied): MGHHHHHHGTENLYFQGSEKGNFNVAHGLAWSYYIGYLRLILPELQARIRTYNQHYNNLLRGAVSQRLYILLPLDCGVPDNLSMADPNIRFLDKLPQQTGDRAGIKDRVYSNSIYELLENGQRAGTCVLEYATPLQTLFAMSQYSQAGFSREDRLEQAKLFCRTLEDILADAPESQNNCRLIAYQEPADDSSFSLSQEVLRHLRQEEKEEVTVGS

Turning to `COc1c(C(N)=O)ccc2c1nc(-c1ccc(Cl)cc1-c1noc(=O)[nH]1)n2CCn1c(-c2ccc(Cl)cc2-c2noc(=O)[nH]2)nc2c(OC)c(C(N)=O)ccc21` [Example 32, 1,1′-(Ethane-1,2-diyl)bis(2-(4-chloro-2-(5-oxo-4,5-dihydro-1,2,4-oxadiazol-3-yl)phenyl)-4-methoxy-1H-benzo[d]imidazole-5-carboxamide)], the ΔTm (as a rule, the change in melting temperature against a reference sample) at 100 µM in assay [1] was 3.99 °C; in assay [3], 0.51 °C. Also, the Kd (usually the constant that tells how readily two partners part at equilibrium) in assay [2] is more than 80 µM.

`COc1c(C(N)=O)ccc2c1nc(-c1c(F)cc(Cl)cc1Br)n2CCn1c(-c2c(F)cc(Cl)cc2Br)nc2c(OC)c(C(N)=O)ccc21` [Example 45, 1,1′-(Ethane-1,2-diyl)bis(2-(2-bromo-4-chloro-6-fluorophenyl)-4-methoxy-1H-benzo[d]imidazole-5-carboxamide)]: the ΔTm at 100 µM in assay [1] was 1.24 °C; in assay [3] it was -0.34 °C. For the same molecule, the affinity in assay [2], expressed as Kd, was 29.6 µM.

For `COc1c(C(N)=O)ccc2c1nc(-c1cc(Cl)ccc1-c1nn[nH]n1)n2CCn1c(-c2cc(Cl)ccc2-c2nn[nH]n2)nc2c(OC)c(C(N)=O)ccc21` [Example 42, 1,1′-(Ethane-1,2-diyl)bis(2-(5-chloro-2-(2H-tetrazol-5-yl)phenyl)-4-methoxy-1H-benzo[d]imidazole-5-carboxamide)], the ΔTm at 100 µM stood at 6.3 °C in assay [1] and 2.04 °C in assay [3]. In assay [2], this molecule gave a Kd of 139 µM.

In the case of `COc1c(C(N)=O)ccc2c1nc(-c1c(F)cc(F)cc1-c1n[nH]c(=O)o1)n2CCn1c(-c2c(F)cc(F)cc2-c2n[nH]c(=O)o2)nc2c(OC)c(C(N)=O)ccc21` [Example 44, 1,1′-(Ethane-1,2-diyl)bis(2-(2,4-difluoro-6-(5-oxo-4,5-dihydro-1,3,4-oxadiazol-2-yl)phenyl)-4-methoxy-1H-benzo[d]imidazole-5-carboxamide)], the figures for the ΔTm at 100 µM in assay [1] and in assay [3] were 13.1 °C and 0.88 °C, respectively. This molecule gave a Kd in assay [2] of 11.1 µM.

As to `NC(=O)c1ccc2c(c1)nc(-c1ccccc1-c1nn[nH]n1)n2CCn1c(-c2ccccc2-c2nnn[nH]2)nc2cc(C(N)=O)ccc21` [Example 5, 2-(2-(1H-Tetrazol-5-yl)phenyl)-1-(2-(2-(2-(2H-tetrazol-5-yl)phenyl)-5-carbamoyl-1H-benzo[d]imidazol-1-yl)ethyl)-1H-benzo[d]imidazole-5-carboxamide], the ΔTm at 100 µM is 6.04 °C in assay [1] and 1.33 °C in assay [3]. Besides, binding in assay [2] was put at a Kd of 30 µM.

For the molecule `COc1c(C(N)=O)ccc2c1nc(-c1cc(C)ccc1C(=O)O)n2CCn1c(-c2cc(C)ccc2C(=O)O)nc2c(OC)c(C(N)=O)ccc21` [Example 26, 2,2′-(Ethane-1,2-diylbis(5-carbamoyl-4-methoxy-1H-benzo[d]imidazole-1,2-diyl))bis(4-methylbenzoic acid)], the thermal shift (ΔTm) at 100 µM in assay [1] was found to be 6.33 °C; in assay [3] it was 1.13 °C. Further, in assay [2], the Kd is more than 40 µM.

Turning to `COc1ccc(-c2nc3c(OC)c(C(N)=O)ccc3n2CCn2c(-c3ccc(OC)cc3C(=O)O)nc3c(OC)c(C(N)=O)ccc32)c(C(=O)O)c1` [Example 41, 6,6′-(Ethane-1,2-diylbis(5-carbamoyl-4-methoxy-1H-benzo[d]imidazole-1,2-diyl))bis(3-methoxybenzoic acid)], the ΔTm at 100 µM in assay [1] stood at 4.52 °C; in assay [3] it was 1.09 °C. In addition, in assay [2], the Kd is 200 µM.

Consider `COc1c(C(N)=O)ccc2c1nc(-c1ccc(C(F)(F)F)cc1C(=O)O)n2CCn1c(-c2ccc(C(F)(F)F)cc2C(=O)O)nc2c(OC)c(C(N)=O)ccc21` [Example 38, 6,6′-(Ethane-1,2-diylbis(5-carbamoyl-4-methoxy-1H-benzo[d]imidazole-1,2-diyl))bis(3-(trifluoromethyl)benzoic acid)], for which the ΔTm at 100 µM in assay [1] was determined as 3.68 °C; in assay [3] it was 0.38 °C. Also, the Kd in assay [2] is more than 100 µM.

On to `COc1c(C(N)=O)ccc2c1nc(-c1c(F)cccc1-c1n[nH]c(=O)o1)n2CCn1c(-c2c(F)cccc2-c2n[nH]c(=O)o2)nc2c(OC)c(C(N)=O)ccc21` [Example 49, 1,1′-(Ethane-1,2-diyl)bis(2-(2-fluoro-6-(5-oxo-4,5-dihydro-1,3,4-oxadiazol-2-yl)phenyl)-4-methoxy-1H-benzo[d]imidazole-5-carboxamide)], for which the results for the ΔTm at 100 µM in assay [1] and in assay [3] were 21.3 °C and 10.2 °C, respectively. For the same molecule, the Kd in assay [2] was 0.755 µM.

In turn, `NC(=O)c1ccc2c(c1)nc(-c1c(Br)cccc1C(=O)O)n2CCn1c(-c2c(Br)cccc2C(=O)O)nc2cc(C(N)=O)ccc21` (single isomer, unassigned) [Example 29.1, 2,2′-(Ethane-1,2-diylbis(5-carbamoyl-1H-benzo[d]imidazole-1,2-diyl))bis(3-bromobenzoic acid)] registered a Kd in assay [2] of 33 µM. Besides, the “DSF huSTING (WT) ΔTm (° C.)” value in assay [3] is −0.07 °C.

For `COc1c(C(N)=O)ccc2c1nc(-c1ccc(Cl)c(Cl)c1-c1nn[nH]n1)n2CCn1c(-c2ccc(Cl)c(Cl)c2-c2nn[nH]n2)nc2c(OC)c(C(N)=O)ccc21` [Example 37, 1,1′-(Ethane-1,2-diyl)bis(2-(3,4-dichloro-2-(2H-tetrazol-5-yl)phenyl)-4-methoxy-1H-benzo[d]imidazole-5-carboxamide)], the thermal shift (ΔTm) at 100 µM in assay [1] is 2.8 °C; in assay [3] it was -0.24 °C.
